Source: US10596168B2, “Antagonists of the thyroid-stimulating hormone receptor (TSHR)” (Forschungsverbund Berlin e.V., priority 2016, dated 2020)

Biological target: T1, TSHR (Homo sapiens, UniProt P16473)
T1 construct: expressed in transfected cells
Experiment: cAMP accumulation radioimmunoassay (RIA), inhibition of TSH-induced cAMP production in HEK-293 cells stably expressing TSHR
Type: cell-based
Set-up: antagonistic activity (% inhibition): concentration or dose not given beside the values
Conditions: inhibiting cAMP stimulation by TSH, radioimmunoassay
Method: HEK-293 cells stably expressing TSHR, FSHR, LHGCR or CRF1R were cultured for 48 h and stimulated for 1 h at 37° C. with stimulation buffer (DMEM supplemented with 10 mM HEPES, 0.5% BSA, 0.25 mM 3-isobutyl-1-methylxanthine) containing the ligands as indicated. After stimulation medium was aspirated and reactions were stopped by lysis of the cells with 0.1% trifluoroacetic acid, 0.005% Triton X-100 for 30 min at 4° C. Supernatants were collected and heated at 95° C. for 10 min, dried in a rotation vacuum concentrator (Alpha-RCV, Christ) and finally stored at −20° C. until use. After reconstitution and acetylation of the samples (Jäschke et al. 2006), the cAMP content was determined using cAMP-^125I-tyrosyl methyl ester (10,000 cpm, IBL) and polyclonal rabbit anti cAMP antibodies. The radioactivity of the precipitate was determined in a γ-counter.
For the Secondary Screening cAMP accumulation was measured by radioimmunoassay (RIA) in HEK-293-TSHR cells as described before.
For the secondary screening we used a very sensitive in vitro technique, the radioimmunoassay. This assay was established and performed in HEK-293 cell line stably expressing TSHR.
Therefore RIA was used to measure the cAMP accumulation upon stimulation with TSH (EC80 value) and confirmed the desired effect for S4 and S9 with a clear decrease of cAMP production.

T1 sequence (P16473 21-764): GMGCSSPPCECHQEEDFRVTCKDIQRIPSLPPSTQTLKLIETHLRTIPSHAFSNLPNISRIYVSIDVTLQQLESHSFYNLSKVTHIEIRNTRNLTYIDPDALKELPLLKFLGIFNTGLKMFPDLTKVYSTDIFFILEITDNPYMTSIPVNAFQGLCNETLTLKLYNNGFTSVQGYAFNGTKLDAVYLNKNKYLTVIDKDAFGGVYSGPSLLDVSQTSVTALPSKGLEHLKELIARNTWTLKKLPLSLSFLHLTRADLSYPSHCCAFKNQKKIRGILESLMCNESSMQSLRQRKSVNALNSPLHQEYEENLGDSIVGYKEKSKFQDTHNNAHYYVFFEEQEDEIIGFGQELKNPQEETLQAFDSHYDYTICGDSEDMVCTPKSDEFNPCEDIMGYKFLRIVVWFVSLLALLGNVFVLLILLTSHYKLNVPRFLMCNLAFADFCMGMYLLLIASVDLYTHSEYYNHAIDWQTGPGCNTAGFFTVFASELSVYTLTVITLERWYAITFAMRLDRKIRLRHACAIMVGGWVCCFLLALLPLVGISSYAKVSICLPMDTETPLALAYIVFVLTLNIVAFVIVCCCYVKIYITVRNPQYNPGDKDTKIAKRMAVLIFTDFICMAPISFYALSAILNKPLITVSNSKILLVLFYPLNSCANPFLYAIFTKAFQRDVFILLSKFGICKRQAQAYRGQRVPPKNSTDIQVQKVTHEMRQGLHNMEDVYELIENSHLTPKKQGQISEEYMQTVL

antagonistic activity (% inhibition) [%]	SMILES
34	O=C1[C@@H]2[C@H]3C[C@H]([C@@H]4Sc5[nH]c(=O)sc5[C@@H](c5ccccc5)[C@H]34)[C@@H]2C(=O)N1c1ccc(O)cc1 (racemic) [Compound S100, (4aR,5R,5aS,8aS,9S,9aR,10S)-7-(4-hydroxyphenyl)-10-phenyl-3,4a,5,5a,8a,9,9a,10-octahydro-5,9-methanothiazolo[5′,4′:5,6]thiopyrano[2,3-f]isoindole-2,6,8(7H)-trione compound with (4aS,5S,5aR,8aR,9R,9aS,10R)-7-(4-hydroxyphenyl)-10-phenyl-3,4a,5,5a,8a,9,9a,10-octahydro-5,9-methanothiazolo[5′,4′:5,6]thiopyrano[2,3-f]isoindole-2,6,8(7H)-trione (1:1)]
53	Cc1ccc(N2C(=O)[C@@H]3[C@H]4C[C@H]([C@@H]5Sc6[nH]c(=O)sc6[C@@H](c6ccccc6)[C@H]45)[C@@H]3C2=O)cc1 (racemic) [Compound S90, (4aR,5R,5aS,8aS,9S,9aR,10S)-10-phenyl-7-(p-tolyl)-3,4a,5,5a,8a,9,9a,10-octahydro-5,9-methanothiazolo[5′,4′:5,6]thiopyrano[2,3-f]isoindole-2,6,8(7H)-trione Compound with (4aS,5S,5aR,8aR,9R,9aS,10R)-10-phenyl-7-(p-tolyl)-3,4a,5,5a,8a,9,9a,10-octahydro-5,9-methanothiazolo[5′,4′:5,6]thiopyrano[2,3-f]isoindole-2,6,8(7H)-trione (1:1)]
40	CN1CCN(c2ccc(N3C(=O)[C@@H]4[C@H]5C[C@H]([C@@H]6Sc7[nH]c(=O)sc7[C@@H](c7ccccc7)[C@H]56)[C@@H]4C3=O)cc2[N+](=O)[O-])CC1 [Compound S38, (4aS,5S,5aR,8aR,9R,9aS,10R)-7-(4-(4-methylpiperazin-1-yl)-3-nitrophenyl)-10-phenyl-3,4a,5,5a,8a,9,9a,10-octahydro-5,9-methanothiazolo[5′,4′:5,6]thiopyrano[2,3-f]isoindole-2,6,8(7H)-trione]
34	O=C1[C@@H]2[C@H]3C[C@H]([C@@H]4Sc5[nH]c(=O)sc5[C@@H](c5cccc(O)c5)[C@H]34)[C@@H]2C(=O)N1c1ccccc1 (racemic) [Compound S125, (4aR,5R,5aS,8aS,9S,9aR,10S)-10-(3-hydroxyphenyl)-7-phenyl-3,4a,5,5a,8a,9,9a,10-octahydro-5,9-methanothiazolo[5′,4′:5,6]thiopyrano[2,3-f]isoindole-2,6,8(7H)-trione compound with (4aS,5S,5aR,8aR,9R,9aS,10R)-10-(3-hydroxyphenyl)-7-phenyl-3,4a,5,5a,8a,9,9a,10-octahydro-5,9-methanothiazolo[5′,4′:5,6]thiopyrano[2,3-f]isoindole-2,6,8(7H)-trione (1:1)]
22	COc1ccc(N2C(=O)[C@@H]3[C@H]4C[C@H]([C@@H]5Sc6[nH]c(=O)sc6[C@@H](c6ccccc6)[C@H]45)[C@@H]3C2=O)cc1 (racemic) [Compound S89, (4aR,5R,5aS,8aS,9S,9aR,10S)-7-(4-methoxyphenyl)-10-phenyl-3,4a,5,5a,8a,9,9a,10-octahydro-5,9-methanothiazolo[5′,4′:5,6]thiopyrano[2,3-t]isoindole-2,6,8(7H)-trione compound with (4aS,5S,5aR,8aR,9R,9aS,10R)-7-(4-methoxyphenyl)-10-phenyl-3,4a,5,5a,8a,9,9a,10-octahydro-5,9-methanothiazolo[5′,4′:5,6]thiopyrano[2,3-t]isoindole-2,6,8(7H)-trione (1:1)]
29	COC(=O)c1ccc(N2C(=O)[C@@H]3[C@H]4C[C@H]([C@@H]5Sc6[nH]c(=O)sc6[C@@H](c6ccccc6)[C@H]45)[C@@H]3C2=O)cc1 (racemic) [Compound S87, methyl 4-((4aR,5R,5aS,8aS,9S,9aR,10S)-2,6,8-trioxo-10-phenyl-3,4a,5,5a,6,8,8a,9,9a,10-decahydro-5,9-methanothiazolo[5′,4′:5,6]thiopyrano[2,3-f]isoindol-7(2H)-yl)benzoate compound with methyl 4-((4aS,5S,5aR,8aR,9R,9aS,10R)-2,6,8-trioxo-10-phenyl-3,4a,5,5a,6,8,8a,9,9a,10-decahydro-5,9-methanothiazolo[5′,4′:5,6]thiopyrano[2,3-f]isoindol-7(2H)-yl)benzoate (1:1)]
55	O=C1C2C3CC(C2C(=O)N1c1cccc(C(F)(F)F)c1)C1C(c2ccccc2)c2sc(=O)[nH]c2SC31 (centres unmarked) [Compound S21]
34	COC(=O)c1cccc(N2C(=O)[C@@H]3[C@H]4C[C@H]([C@@H]5Sc6[nH]c(=O)sc6[C@@H](c6ccccc6)[C@H]45)[C@@H]3C2=O)c1 (racemic) [Compound S96, methyl 3-((4aR,5R,5aS,8aS,9S,9aR,10S)-2,6,8-trioxo-10-phenyl-3,4a,5,5a,6,8,8a,9,9a,10-decahydro-5,9-methanothiazolo[5′,4′:5,6]thiopyrano[2,3-f]isoindol-7(2H)-yl)benzoate compound with methyl 3-((4aS,5S,5aR,8aR,9R,9aS,10R)-2,6,8-trioxo-10-phenyl-3,4a,5,5a,6,8,8a,9,9a,10-decahydro-5,9-methanothiazolo[5′,4′:5,6]thiopyrano[2,3-f]isoindol-7(2H)-yl)benzoate (1:1)]
25	CC(=O)c1ccc(N2C(=O)[C@@H]3[C@H]4C[C@H]([C@@H]5Sc6[nH]c(=O)sc6[C@@H](c6ccccc6)[C@H]45)[C@@H]3C2=O)cc1 (racemic) [Compound S80, (4aR,5R,5aS,8aS,9S,9aR,10S)-7-(4-acetylphenyl)-10-phenyl-3,4a,5,5a,8a,9,9a,10-octahydro-5,9-methanothiazolo[5′,4′:5,6]thiopyrano[2,3-f]isoindole-2,6,8(7H)-trione Compound with (4aS,5S,5aR,8aR,9R,9aS,10R)-7-(4-acetylphenyl)-10-phenyl-3,4a,5,5a,8a,9,9a,10-octahydro-5,9-methanothiazolo[5′,4′:5,6]thiopyrano[2,3-f]isoindole-2,6,8(7H)-trione (1:1)]
15	CCOC(=O)N1CCN(c2ncc(N3C(=O)[C@@H]4[C@H](C3=O)[C@H]3C=C[C@@H]4C3)cc2[N+](=O)[O-])CC1 [Compound S35]
35	O=C1C2C3C=CC(C3)C2C(=O)N1c1ccc(N2CCOCC2)c([N+](=O)[O-])c1 (centres unmarked) [Compound S26]
30	Cc1ccc(N2C(=O)C3C4CC(C3C2=O)C2C(c3ccc(N(C)C)cc3)c3sc(=O)[nH]c3SC42)cc1 (centres unmarked) [Compound S18]
38	O=C1[C@@H]2[C@H]3C[C@H]([C@@H]4Sc5[nH]c(=O)sc5[C@@H](c5ccc(O)cc5)[C@H]34)[C@@H]2C(=O)N1c1ccccc1 (racemic) [Compound S122, (4aR,5R,5aS,8aS,9S,9aR,10S)-10-(4-hydroxyphenyl)-7-phenyl-3,4a,5,5a,8a,9,9a,10-octahydro-5,9-methanothiazolo[5′,4′:5,6]thiopyrano[2,3-f]isoindole-2,6,8(7H)-trione compound with (4aS,5S,5aR,8aR,9R,9aS,10R)-10-(4-hydroxyphenyl)-7-phenyl-3,4a,5,5a,8a,9,9a,10-octahydro-5,9-methanothiazolo[5′,4′:5,6]thiopyrano[2,3-f]isoindole-2,6,8(7H)-trione (1:1)]
30	CCOC(=O)N1CCN(c2ncc(N3C(=O)C4C(C3=O)[C@H]3C=C[C@@H]4C3)cc2[N+](=O)[O-])CC1 (some centres unmarked) [Compound S34]
29	Nc1ccc(N2C(=O)[C@@H]3[C@H]4C[C@H]([C@@H]5Sc6[nH]c(=O)sc6[C@@H](c6ccccc6)[C@H]45)[C@@H]3C2=O)cc1 (racemic) [Compound S79, (4aR,5R,5aS,8aS,9S,9aR,10S)-7-(4-aminophenyl)-10-phenyl-3,4a,5,5a,8a,9,9a,10-octahydro-5,9-methanothiazolo[5′,4′:5,6]thiopyrano[2,3-f]isoindole-2,6,8(7H)-trione Compound with (4aS,5S,5aR,8aR,9R,9aS,10R)-7-(4-aminophenyl)-10-phenyl-3,4a,5,5a,8a,9,9a,10-octahydro-5,9-methanothiazolo[5′,4′:5,6]thiopyrano[2,3-t]isoindole-2,6,8(7H)-trione (1:1)]
22	O=C1[C@@H]2[C@H]3C[C@H]([C@@H]4Sc5[nH]c(=O)sc5[C@@H](c5ccc(F)cc5)[C@H]34)[C@@H]2C(=O)N1c1ccccc1 (racemic) [Compound S124, (4aR,5R,5aS,8aS,9S,9aR,10S)-10-(4-fluorophenyl)-7-phenyl-3,4a,5,5a,8a,9,9a,10-octahydro-5,9-methanothiazolo[5′,4′:5,6]thiopyrano[2,3-f]isoindole-2,6,8(7H)-trione compound with (4aS,5S,5aR,8aR,9R,9aS,10R)-10-(4-fluorophenyl)-7-phenyl-3,4a,5,5a,8a,9,9a,10-octahydro-5,9-methanothiazolo[5′,4′:5,6]thiopyrano[2,3-f]isoindole-2,6,8(7H)-trione (1:1)]
50	O=C1C2C3CC(C2C(=O)N1c1ccccc1)C1C(c2ccc(O)cc2)c2sc(=O)[nH]c2SC31 (centres unmarked) [Compound S19]
